Patent US11179369B2, “Sustained release pharmaceutical compositions” (Wyeth, LLC, priority 2003, dated 2021)

What was measured:
[1] = Water solubility; type: physicochemical
Experimental: The tablet shapes and total tablet weights were kept same for all four different strengths and for the two different release rate tablets. […] In the formulations of aplindore fumarate 5.0 mg, 2.0 mg, 0.5 mg and 0.05 mg medium and slow release formulations, Lactose Fast Flo has been chosen as the water-soluble compensating excipient. […] It has been used in the 10.0 mg medium release formulation.

[2] = Side effects on dosing subject patients with aplindore; type: in vivo, human; settings: correlated with time period of maximal plasma levels
Excerpt: In especially preferred embodiments of each of the formulations of the invention, the active compound is aplindore. Aplindore and pharmaceutically acceptable salts thereof are particularly well-suited to treating various disorders of the central nervous system and more particularly to those central nervous disorders relating to the dopaminergic system. Because aplindore (or any drug) requires a sufficient exposure level to achieve its desired effects, the drug must be dosed in a manner sufficient to achieve the particular blood plasma level over a period of time deemed sufficient to meet the clinical objective sought. […] Simply reducing the dose would not always be satisfactory since, while the side effects might lessen or disappear, the overall drug exposure levels might not be satisfactory to treat the particular condition.

Row | water solubility [1] | SMILES | side effects [2]
1 | highly water-soluble | O=C(O)/C=C/C(=O)O.O=C1Cc2c(ccc3c2O[C@@H](CNCc2ccccc2)CO3)N1 [aplindore fumarate] | –
2 | – | O=C1Cc2c(ccc3c2O[C@@H](CNCc2ccccc2)CO3)N1 [aplindore, S-2-[(Benzylamino)-methyl]-2,3,8,9-tetrahydro-7H-1,4-dioxino[2,3-e]indol-8-one] | side effects including nausea and vomiting
